The values below come from publication PMC6798786 (Brain Communications, 2019).

For data set [1], the system named is scn1lab mutant zebrafish. Put plainly: local field potential (LFP) electrophysiology, electrographic seizure events. The data set is classed as in vivo, Danio rerio. Particulars: 250 µM; 10 min recording epoch. Here is the method: Using a glass micro-electrode positioned under an upright microscope, local field potential (LFP) recordings were obtained from forebrain or optic tectum structures, as described ([Baraban et al., 2005]). Agarose-embedded LFP recording sessions (10 min in duration) were obtained using Axoclamp software (Molecular Devices; Sunnyvale, CA, USA) and sampled at 1 kHz. Epileptiform events were identified post hoc. These were classified as multi-spike or poly-spike upward or downward membrane deflections greater than 3× baseline noise level and 150–250 ms in duration (interictal-like) or greater than 5× baseline noise, multi-spike and >500 ms in duration (ictal-like); both events were counted using threshold detection settings in Clampfit (Molecular Devices; Sunnyvale, CA, USA). Agarose-embedded larvae were continuously monitored for blood flow and heart rate using an Axiocam digital camera at video frame rate.
Monitoring electrographic brain activity to confirm seizure suppression is an essential assay to eliminate false positives from behavioural testing ([Griffin et al., 2018]). By placing a micro-electrode into a visually identified brain region of an agar-immobilized zebrafish larval, stable LFP recordings can be monitored for several hours ([Baraban, 2013]). At 5 days post-fertilization, LFP recordings of scn1Lab zebrafish larvae show an average of 250 abnormal electrographic seizure events during a 10 min recording epoch.

The target of a further data set is 5-HT transporter. The following applies: known drugs of Table 1; reference not given; cited from earlier work.
The next data set has as its target 5-HT1A. The following applies: known drugs of Table 1; reference not given; cited from earlier work.
In data set [2] the test system is scn1lab mutant zebrafish. Put plainly: locomotion (mean swim velocity) seizure-like behaviour assay in scn1lab mutant zebrafish larvae. The following applies: for effect on seizure-like swim behaviour, commercially available compounds: three concentrations, 30 and 90 min exposure; for change in vivo at 100 µM / change in vivo at 250 µM: Danio rerio. The data set is classed as in vivo, Danio rerio. The gist of the method:
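Scn1lab mutant larvae at 5 dpf, one per well in embryo media, acclimated 20 min at room temperature, then tracked 10 min for distance travelled and mean velocity. A ≥40% change in mean swim velocity counted as significant. Toxicity (heartbeat, touch escape response) checked after 90 min drug exposure.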

For the next data set, the target named is 5-HT7. The following applies: known drugs of Table 1; reference not given; cited from earlier work.
The target in data set [3] is T1, human 5-HT2AR (Homo sapiens, UniProt P28223). Particulars: known drugs of Table 1; reference not given; read-out: Ki 5-HT2A, Table 1 known drugs; cited from earlier work.
T1 sequence (P28223 whole entry): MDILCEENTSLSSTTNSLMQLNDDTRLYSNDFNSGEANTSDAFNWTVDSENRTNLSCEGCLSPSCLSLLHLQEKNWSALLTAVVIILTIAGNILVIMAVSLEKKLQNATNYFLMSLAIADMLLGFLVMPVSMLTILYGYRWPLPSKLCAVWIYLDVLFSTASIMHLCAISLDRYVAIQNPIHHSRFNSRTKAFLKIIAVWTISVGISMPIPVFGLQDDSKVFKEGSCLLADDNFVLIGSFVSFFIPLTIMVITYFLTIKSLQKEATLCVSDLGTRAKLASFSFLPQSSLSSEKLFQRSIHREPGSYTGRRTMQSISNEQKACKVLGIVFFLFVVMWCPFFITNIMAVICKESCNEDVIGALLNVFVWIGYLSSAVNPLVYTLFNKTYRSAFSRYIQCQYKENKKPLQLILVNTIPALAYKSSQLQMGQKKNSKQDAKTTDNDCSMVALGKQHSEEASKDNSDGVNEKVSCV
Data set [4] is described as follows: dissolution of compound at screening concentration. Particulars: 250 µM.
From the text: Ten millimolars of compound stock solutions were made in dimethyl sulfoxide and then diluted in embryo medium for assays.
The target in data set [5] is T1, human 5-HT2AR. Put plainly: radioligand binding (NIMH PDSP). Here is the method: (§1) All in vitro binding assay and Ki data studies were performed by the US National Institute of Mental Health Psychoactive Drug Screening Program (NIMH PDSP). For these studies, drugs were screened against recombinant, stably expressed human 5-HT2AR, 5-HT2BR, 5-HT2CR and H1, as described at https://pdspdb.unc.edu/pdspWeb/ ([Besnard et al., 2012]).

Data set [6] deals with T2, human H1 (Homo sapiens, UniProt P35367). Put plainly: radioligand binding (NIMH PDSP). Particulars: read-out: Ki H1. How it is done:
as §1

Data set [7] concerns the target T3, human 5-HT2BR (Homo sapiens, UniProt P41595). Put plainly: radioligand binding (NIMH PDSP). Particulars: read-out: Ki 5-HT2BR. Here is the method: as §1
For data set [8], the target named is T4, human 5-HT2CR (Homo sapiens, UniProt P28335).
T4 sequence (P28335 33-458): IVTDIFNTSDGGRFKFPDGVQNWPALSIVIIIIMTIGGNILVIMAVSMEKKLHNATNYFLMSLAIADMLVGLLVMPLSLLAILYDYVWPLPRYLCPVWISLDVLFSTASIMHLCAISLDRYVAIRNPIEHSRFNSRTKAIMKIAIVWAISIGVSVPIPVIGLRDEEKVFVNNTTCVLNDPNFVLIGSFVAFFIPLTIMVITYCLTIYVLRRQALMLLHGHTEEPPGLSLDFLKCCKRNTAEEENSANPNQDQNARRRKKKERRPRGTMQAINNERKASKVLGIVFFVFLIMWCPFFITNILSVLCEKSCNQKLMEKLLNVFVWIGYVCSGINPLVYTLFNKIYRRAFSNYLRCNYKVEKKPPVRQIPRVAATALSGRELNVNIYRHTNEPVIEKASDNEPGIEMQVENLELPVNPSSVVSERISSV
Put plainly: radioligand binding (NIMH PDSP). How it is done: as §1

For data set [9], the target named is T2, human H1. The following applies: known drugs of Table 1; reference not given; read-out: Ki Histamine H1, Table 1 known drugs; cited from earlier work.
Data set [10] has as its target T4, human 5-HT2CR.
In a further data set the target is Histamine H3. The following applies: known drugs of Table 1; reference not given; cited from earlier work.
The next data set addresses 5-HT6. The following applies: known drugs of Table 1; reference not given; cited from earlier work.
Data set [11] addresses Norepinephrine transporter. The following applies: known drugs of Table 1; reference not given; cited from earlier work.
Data set [12] deals with T3, human 5-HT2BR.
Another data set has as its target 5-HT1D. Particulars: known drugs of Table 1; reference not given; cited from earlier work.
A further data set has as its target 5-HT1B. Particulars: known drugs of Table 1; reference not given; cited from earlier work.
Data set [13] has as its system scn1lab mutant zebrafish. Set-up: method as in Dinday and Baraban, 2015; Sourbron et al., 2016. Particulars: ref Dinday and Baraban, 2015; Sourbron et al., 2016; cited from earlier work.
For data set [14] the following is noted: use as anorectic; ref Abenhaim et al., 1996; Khan et al., 1998; cited from earlier work.
The next data set deals with Adrenergic alpha1B. The following applies: known drugs of Table 1; reference not given; cited from earlier work.
A further data set concerns the target Adrenergic beta2. Particulars: read-out: Ki Adrenergic beta2; known drugs of Table 1; reference not given; cited from earlier work.
The target of a further data set is Adrenergic alpha1A. Particulars: read-out: Ki Adrenergic alpha1A; known drugs of Table 1; reference not given; cited from earlier work.
Another data set addresses Adrenergic alpha2C. Particulars: read-out: Ki Adrenergic alpha2C; known drugs of Table 1; reference not given; cited from earlier work.
A further data set has as its target Histamine H2. Particulars: known drugs of Table 1; reference not given; cited from earlier work.
For a further data set, the target named is Adrenergic beta1. The following applies: read-out: Ki Adrenergic beta1; known drugs of Table 1; reference not given; cited from earlier work.
In another data set the target is DOPAMINE D2. The following applies: known drugs of Table 1; reference not given; cited from earlier work.
A further data set deals with Adrenergic alpha2B. Particulars: read-out: Ki Adrenergic alpha2B; known drugs of Table 1; reference not given; cited from earlier work.
A further data set addresses Adrenergic alpha2A. Particulars: read-out: Ki Adrenergic alpha2A; known drugs of Table 1; reference not given; cited from earlier work.
A further data set has as its target Dopamine transporter. Particulars: known drugs of Table 1; reference not given; cited from earlier work.
Another data set deals with DOPAMINE D5. The following applies: read-out: Ki DOPAMINE D5; known drugs of Table 1; reference not given; cited from earlier work.
The target in a further data set is DOPAMINE D1. Particulars: read-out: Ki DOPAMINE D1; known drugs of Table 1; reference not given; cited from earlier work.
A further data set addresses DOPAMINE D4. The following applies: read-out: Ki DOPAMINE D4; known drugs of Table 1; reference not given; cited from earlier work.
The target in a further data set is 5-HT5. Particulars: known drugs of Table 1; reference not given; cited from earlier work.
Another data set addresses 5-HT1E. The following applies: known drugs of Table 1; reference not given; cited from earlier work.
In another data set the target is 5-HT1F. The following applies: known drugs of Table 1; reference not given; cited from earlier work.
Where [15] appears, read: read-out: % change in velocity, individual larva 1 (heat map).
Setting [16] is: read-out: % change in velocity, individual larva 2 (heat map).
Where [17] appears, read: read-out: % change in velocity, individual larva 3 (heat map).
Where [18] appears, read: read-out: % change in velocity, individual larva 4 (heat map).
Where [19] appears, read: read-out: % change in velocity, individual larva 5 (heat map).
Setting [20] is: read-out: % change in velocity, individual larva 6 (heat map).
Where [21] appears, read: read-out: mean velocity change from six fish, Trial 1.

pKi: −log10 of the molar value. Like-named read-outs stand apart in the source and are kept apart here.

T3 sequence (P41595 whole entry): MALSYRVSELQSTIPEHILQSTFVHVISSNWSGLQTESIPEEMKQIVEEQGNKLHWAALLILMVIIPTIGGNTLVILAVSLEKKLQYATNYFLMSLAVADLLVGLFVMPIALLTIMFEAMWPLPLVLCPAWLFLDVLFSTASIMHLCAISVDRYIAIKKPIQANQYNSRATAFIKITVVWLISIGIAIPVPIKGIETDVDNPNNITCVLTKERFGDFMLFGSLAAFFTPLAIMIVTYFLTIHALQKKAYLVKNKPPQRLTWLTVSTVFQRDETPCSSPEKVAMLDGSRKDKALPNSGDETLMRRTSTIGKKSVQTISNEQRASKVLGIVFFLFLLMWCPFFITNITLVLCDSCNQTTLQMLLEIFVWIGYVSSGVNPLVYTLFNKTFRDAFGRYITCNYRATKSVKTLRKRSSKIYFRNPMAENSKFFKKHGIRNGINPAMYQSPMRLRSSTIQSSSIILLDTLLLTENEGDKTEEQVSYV
T2 sequence (P35367 whole entry): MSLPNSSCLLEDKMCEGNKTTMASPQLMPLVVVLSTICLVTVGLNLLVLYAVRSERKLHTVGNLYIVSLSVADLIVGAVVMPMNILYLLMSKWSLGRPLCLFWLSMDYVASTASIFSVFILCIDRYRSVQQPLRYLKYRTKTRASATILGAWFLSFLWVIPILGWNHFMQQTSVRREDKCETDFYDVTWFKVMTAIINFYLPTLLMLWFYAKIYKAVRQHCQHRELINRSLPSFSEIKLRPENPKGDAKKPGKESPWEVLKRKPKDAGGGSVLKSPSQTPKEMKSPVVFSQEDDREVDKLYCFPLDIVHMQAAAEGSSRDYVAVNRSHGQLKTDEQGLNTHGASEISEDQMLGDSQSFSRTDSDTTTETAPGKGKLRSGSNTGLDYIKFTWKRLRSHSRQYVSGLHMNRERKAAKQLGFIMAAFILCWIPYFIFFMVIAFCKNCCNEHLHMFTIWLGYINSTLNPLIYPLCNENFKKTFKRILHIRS

As for `CC(N)Cc1ccc2ccoc2c1` (stereo not drawn) [Compound 6-APB, 6-(2-aminopropyl)benzofuran], the “effect on frequency of electrographic seizure events (LFP)” value in the data set on scn1lab mutant zebrafish [1] is on record as “significantly suppressed the frequency of electrographic seizure events”. The pKi – broadly, the Ki on a negative log10 scale, so that one unit is a factor of ten – on 5-HT transporter is 5.57; on 5-HT1A, 5.89; on 5-HT7, 6.81; at human 5-HT2AR [3], 5.72. In addition, the “effect on seizure-like swim behaviour, commercially available compounds” value in the data set on scn1lab mutant zebrafish [2] is reported as “suppressed convulsive swim behaviours in a concentration-dependent manner”.

For `CC(C)(C)OC(=O)N1CCN(Cc2nc3ccccc3n2Cc2ccc(Cl)cc2)CC1` [Compound 25], the “going into solution at screening concentration” value in data set [4] is “failed to go into solution”. Further, the change in vivo at 100 µM was -56% in the data set with scn1lab mutant zebrafish [2] (setting [15]); 91.3% in the data set on scn1lab mutant zebrafish [2] (setting [16]); -65.8% with scn1lab mutant zebrafish [2] (setting [17]); 78.7% in the data set with scn1lab mutant zebrafish [2] (setting [18]); 35.7% in the data set on scn1lab mutant zebrafish [2] (setting [19]); 153% in the data set with scn1lab mutant zebrafish [2] (setting [20]). The change in vivo at 100 µM with scn1lab mutant zebrafish [2] (setting [21]) was found to be 42%; with scn1lab mutant zebrafish [2] (read-out: mean velocity change from six fish, Trial 2), 42%. The change in vivo at 250 µM was -87% with scn1lab mutant zebrafish [2] (setting [15]); -92.4% with scn1lab mutant zebrafish [2] (setting [16]); -76.5% in the data set with scn1lab mutant zebrafish [2] (setting [17]); -56.9% with scn1lab mutant zebrafish [2] (setting [18]); -100% in the data set on scn1lab mutant zebrafish [2] (setting [19]); -23.6% in the data set on scn1lab mutant zebrafish [2] (setting [20]). Besides, the change in vivo at 250 µM with scn1lab mutant zebrafish [2] (setting [21]) is -82.5%. In addition, the pKi on human 5-HT2AR [5] is 5.62; at human H1 [6], 7.12; at human 5-HT2BR [7] it was 6.32; at human 5-HT2CR [8], 5.64.

Consider `Clc1ccc(Cn2c(CN3CCCC3)nc3ccccc32)cc1` [clemizole], for which the pKi at human H1 [9] is 8.89; on human 5-HT2CR [10] (known drugs of Table 1; reference not given; read-out: Ki 5-HT2C, Table 1 known drugs; cited from earlier work) it was 6.71; at Histamine H3, 6.40; on 5-HT6 it was below 5.00; at 5-HT1A it was below 5.00; in data set [11] it was below 5.00. For the same compound, the pKi on 5-HT7 was below 5.00; at human 5-HT2BR [12] (known drugs of Table 1; reference not given; read-out: Ki 5-HT2B, Table 1 known drugs; cited from earlier work), 7.60; on 5-HT1D, below 5.00; on 5-HT1B it was below 5.00; at human 5-HT2AR [3], 6.62.

On to `CCNC(C)Cc1cccc(C(F)(F)F)c1` (stereo not drawn) [fenfluramine], for which the negative logarithm of the Ki (pKi) at 5-HT6 is 5.04; at 5-HT7, 5.14; on 5-HT1D it was 5.90; at 5-HT1B it was 5.74; on Adrenergic alpha1B, 6.85. Also, in the data set with scn1lab mutant zebrafish [13], the “suppression of spontaneous seizures in scn1lab zebrafish (earlier work)” value is “effective in suppressing spontaneous seizures”. In addition, in [14], the “patients with heart valve defects” value was around 25%.

With `C[C@H]1CNCCc2ccc(Cl)cc21` [lorcaserin], the pKi at Adrenergic beta2 is below 5.00; on Adrenergic alpha1A it was below 5.00; on 5-HT transporter, 6.00; at Adrenergic alpha2C, below 5.00; on Histamine H2, below 5.00; at 5-HT6 it was 5.70. Besides, the pKi on Adrenergic beta1 is below 5.00; on DOPAMINE D2, below 5.00; on Adrenergic alpha2B, below 5.00; on 5-HT1A it was 6.15; in data set [11] it was 5.85; on Adrenergic alpha2A, below 5.00. Besides, the pKi on Dopamine transporter was below 5.00; on 5-HT7 it was 6.20; at DOPAMINE D5, below 5.00; at DOPAMINE D1 it was below 5.00; on Adrenergic alpha1B, below 5.00; on DOPAMINE D4, below 5.00. Moreover, at 5-HT5, the pKi is 5.43.

`CC[C@@H](CO)NC(=O)[C@@H]1C=C2c3cccc4[nH]cc(c34)C[C@H]2N(C)C1` [methylergonovine]: in the data set on scn1lab mutant zebrafish [1], the “effect on frequency of electrographic seizure events (LFP)” value is “significantly suppressed the frequency of electrographic seizure events”. Also, the negative logarithm of the Ki (pKi) on 5-HT1E is 7.05; at human 5-HT2CR [10] (read-out: Ki 5-HT2C, Table 1 known drugs; known drugs of Table 1; reference not given; cited from earlier work), 8.34; on 5-HT1F, 7.51; on human 5-HT2BR [12] (read-out: Ki 5-HT2B, Table 1 known drugs; known drugs of Table 1; reference not given; cited from earlier work) it was 8.66. Further, the “effect on seizure-like swim behaviour, commercially available compounds” value with scn1lab mutant zebrafish [2] is given as “suppressed convulsive swim behaviours in a concentration-dependent manner”.
